Reference: ChEMBL document CHEMBL5584238, “Psammaplin A analogues with modified disulfide bond targeting histone deacetylases: Synthesis and biological evaluation” (Eur J Med Chem, 2024)
The source made the active and inactive calls. No cut-off for these calls is given here.

Assays:
[1] = tested on: HCT-116; test: Induction of apoptosis in human HCT-116 cells assessed as necrotic cells at 0.2 uM incubated for 24 hrs by Annexin V-FITC/PI staining based flow cytometry analysis ( Rvb = 0.24%); format: functional
[2] = target: T1, Protein deacetylase HDAC6 (Mus musculus) (UniProt Q9Z2V5); test: In vivo inhibition of HDAC6 in BALB/c nude mouse assessed as upregulation of tumor acetylated alpha-tubulin level at 5 mg/kg, ip administered every 2 days for 26 days by Western blotting analysis; format: functional, organism-based; conditions: time 26.0 day
T1 sequence (whole entry): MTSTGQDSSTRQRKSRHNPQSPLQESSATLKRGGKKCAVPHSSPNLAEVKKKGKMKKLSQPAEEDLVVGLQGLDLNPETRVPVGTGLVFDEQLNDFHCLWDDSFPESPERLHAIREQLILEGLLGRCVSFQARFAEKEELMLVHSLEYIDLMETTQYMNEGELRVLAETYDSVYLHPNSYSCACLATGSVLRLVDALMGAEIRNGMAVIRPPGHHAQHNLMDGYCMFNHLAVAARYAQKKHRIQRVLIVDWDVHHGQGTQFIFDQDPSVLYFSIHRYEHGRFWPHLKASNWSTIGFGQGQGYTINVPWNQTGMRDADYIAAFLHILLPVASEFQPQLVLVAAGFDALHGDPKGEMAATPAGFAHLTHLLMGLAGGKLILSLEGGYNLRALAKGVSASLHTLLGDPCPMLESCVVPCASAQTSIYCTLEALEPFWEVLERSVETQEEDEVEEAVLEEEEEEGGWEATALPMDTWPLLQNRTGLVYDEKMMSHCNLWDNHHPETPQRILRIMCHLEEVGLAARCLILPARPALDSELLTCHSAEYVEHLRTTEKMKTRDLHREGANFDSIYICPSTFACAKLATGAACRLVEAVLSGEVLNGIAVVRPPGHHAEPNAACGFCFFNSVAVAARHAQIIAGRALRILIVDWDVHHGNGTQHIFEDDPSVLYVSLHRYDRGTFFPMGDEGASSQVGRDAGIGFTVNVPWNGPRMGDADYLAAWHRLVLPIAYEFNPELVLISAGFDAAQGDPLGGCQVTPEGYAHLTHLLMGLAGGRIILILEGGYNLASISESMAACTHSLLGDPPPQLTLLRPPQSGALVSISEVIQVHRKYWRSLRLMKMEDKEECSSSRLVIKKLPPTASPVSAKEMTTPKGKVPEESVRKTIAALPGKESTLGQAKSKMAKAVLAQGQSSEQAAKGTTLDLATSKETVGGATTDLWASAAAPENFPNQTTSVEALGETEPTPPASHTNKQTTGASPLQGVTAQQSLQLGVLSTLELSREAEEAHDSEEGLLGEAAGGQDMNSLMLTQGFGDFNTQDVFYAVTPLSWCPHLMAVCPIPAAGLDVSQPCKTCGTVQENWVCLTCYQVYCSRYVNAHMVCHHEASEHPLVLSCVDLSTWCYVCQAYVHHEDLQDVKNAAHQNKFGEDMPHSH

[3] = tested on: HCT-116; test: Induction of cell cycle arrest in human HCT-116 cells assessed as accumulation of cells at S phase at 0.1 uM after 24 hrs by PI staining based flow cytometry analysis (reference value: 52.8%); format: functional
[4] = target: Class 1 histone deacetylase (Homo sapiens) (UniProt Q13547+O15379+Q92769+Q9BY41); test: Inhibition of class 1 HDACs in human HCT-116 cells assessed as upregulation of acetylated alpha-H3 level incubated for 24 hrs by Western blotting analysis; format: cell-based; conditions: dose 0.5-4 µM
Chain of Class 1 histone deacetylase (Homo sapiens) (O15379 whole entry, looked up): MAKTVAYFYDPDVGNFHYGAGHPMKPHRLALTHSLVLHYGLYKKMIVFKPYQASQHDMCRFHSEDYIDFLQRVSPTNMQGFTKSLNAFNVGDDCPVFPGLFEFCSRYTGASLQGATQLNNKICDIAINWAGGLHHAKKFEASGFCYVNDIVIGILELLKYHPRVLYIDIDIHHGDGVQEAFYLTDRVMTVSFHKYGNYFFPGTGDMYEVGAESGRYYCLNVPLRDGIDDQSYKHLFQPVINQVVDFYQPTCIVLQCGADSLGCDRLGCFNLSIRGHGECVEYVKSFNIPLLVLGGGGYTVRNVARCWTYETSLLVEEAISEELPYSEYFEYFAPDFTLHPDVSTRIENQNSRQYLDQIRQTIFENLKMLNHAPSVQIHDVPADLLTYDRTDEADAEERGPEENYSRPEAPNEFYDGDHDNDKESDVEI
Chain of Class 1 histone deacetylase (Homo sapiens) (Q13547 whole entry, looked up): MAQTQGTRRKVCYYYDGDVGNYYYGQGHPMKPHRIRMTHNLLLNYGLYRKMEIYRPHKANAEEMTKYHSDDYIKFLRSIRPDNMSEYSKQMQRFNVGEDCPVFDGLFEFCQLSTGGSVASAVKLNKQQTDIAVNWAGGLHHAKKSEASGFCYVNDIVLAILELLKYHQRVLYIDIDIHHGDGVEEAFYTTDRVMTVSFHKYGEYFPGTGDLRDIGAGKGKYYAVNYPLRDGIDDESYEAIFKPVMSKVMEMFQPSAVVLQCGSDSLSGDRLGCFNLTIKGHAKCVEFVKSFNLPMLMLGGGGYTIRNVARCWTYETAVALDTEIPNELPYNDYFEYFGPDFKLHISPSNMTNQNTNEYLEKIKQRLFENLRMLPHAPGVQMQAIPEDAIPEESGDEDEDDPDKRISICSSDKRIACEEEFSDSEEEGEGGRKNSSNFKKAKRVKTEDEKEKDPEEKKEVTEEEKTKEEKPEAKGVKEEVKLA
Chain of Class 1 histone deacetylase (Homo sapiens) (Q92769 whole entry, looked up): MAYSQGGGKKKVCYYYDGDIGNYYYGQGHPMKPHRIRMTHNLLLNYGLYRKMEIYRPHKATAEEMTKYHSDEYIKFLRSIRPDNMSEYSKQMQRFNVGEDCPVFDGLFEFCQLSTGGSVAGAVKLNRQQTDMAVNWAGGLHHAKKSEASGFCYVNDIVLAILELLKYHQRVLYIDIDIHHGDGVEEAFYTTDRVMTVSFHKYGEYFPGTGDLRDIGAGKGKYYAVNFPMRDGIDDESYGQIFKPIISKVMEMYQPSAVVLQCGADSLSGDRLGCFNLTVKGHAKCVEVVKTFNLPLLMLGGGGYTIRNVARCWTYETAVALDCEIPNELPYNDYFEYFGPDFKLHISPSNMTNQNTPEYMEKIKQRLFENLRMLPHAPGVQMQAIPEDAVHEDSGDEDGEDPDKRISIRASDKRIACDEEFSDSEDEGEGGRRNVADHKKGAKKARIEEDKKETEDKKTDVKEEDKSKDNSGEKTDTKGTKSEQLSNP
Chain of Class 1 histone deacetylase (Homo sapiens) (Q9BY41 whole entry, looked up): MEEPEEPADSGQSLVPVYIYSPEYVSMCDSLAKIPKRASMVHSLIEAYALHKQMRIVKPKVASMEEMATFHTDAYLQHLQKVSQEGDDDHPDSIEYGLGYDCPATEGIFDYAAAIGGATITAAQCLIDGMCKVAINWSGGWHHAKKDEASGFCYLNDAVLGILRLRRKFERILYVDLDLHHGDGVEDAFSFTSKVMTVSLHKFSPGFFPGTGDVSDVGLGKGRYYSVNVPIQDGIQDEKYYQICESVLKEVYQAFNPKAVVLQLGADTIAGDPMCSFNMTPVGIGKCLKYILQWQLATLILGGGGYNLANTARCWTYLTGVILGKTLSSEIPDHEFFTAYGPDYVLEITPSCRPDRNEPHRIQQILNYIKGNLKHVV

[5] = tested on: HCT-116; test: Induction of cell cycle arrest in human HCT-116 cells assessed as accumulation of cells at G2/M phase at 0.1 uM after 24 hrs by PI staining based flow cytometry analysis (reference value: 9.3%); format: functional
[6] = tested on: HCT-116; test: Induction of cell cycle arrest in human HCT-116 cells assessed as accumulation of cells at G2/M phase at 0.2 uM after 24 hrs by PI staining based flow cytometry analysis (reference value: 9.3%); format: functional
[7] = tested on: HCT-116; test: Induction of cell cycle arrest in human HCT-116 cells assessed as accumulation of cells at G1 phase at 0.1 uM after 24 hrs by PI staining based flow cytometry analysis (reference value: 37.9%); format: functional
[8] = tested on: HCT-116; test: Induction of apoptosis in human HCT-116 cells assessed as late apoptotic cells at 0.4 uM incubated for 24 hrs by Annexin V-FITC/PI staining based flow cytometry analysis ( Rvb = 5.32%); format: functional
[9] = tested on: Mus musculus; test: In vivo inhibition of class 1 HDACs in BALB/c nude mouse assessed as upregulation of tumor acetylated H3 level at 5 mg/kg, ip administered every 2 days for 26 days by Western blotting analysis; format: functional, organism-based; conditions: time 26.0 day
[10] = tested on: HCT-116; test: Induction of apoptosis in human HCT-116 cells assessed as necrotic cells at 0.4 uM incubated for 24 hrs by Annexin V-FITC/PI staining based flow cytometry analysis ( Rvb = 0.24%); format: functional
[11] = tested on: HCT-116; test: Induction of apoptosis in human HCT-116 cells assessed as late apoptotic cells at 0.2 uM incubated for 24 hrs by Annexin V-FITC/PI staining based flow cytometry analysis ( Rvb = 5.32%); format: functional
[12] = tested on: HCT-116; test: Induction of apoptosis in human HCT-116 cells assessed as viable cells at 0.4 uM incubated for 24 hrs by Annexin V-FITC/PI staining based flow cytometry analysis ( Rvb = 92.2%); format: functional; conditions: read-out: Activity

SMILES | Activity [1] | inhibition [2] | Activity [3] | inhibition [4] | Activity [5] | Activity [6] | Activity [7] | Activity [8] | inhibition [9] | Activity [10] | Activity [11] | viability at 0.4 µM [12]
O=C(NCC[Se][Se]CCNC(=O)/C(Cc1ccc(O)c(Br)c1)=N/O)/C(Cc1ccc(O)c(Br)c1)=N/O | 0.32% | Active | 20% | Dose-Dependent Effect | 47.92% | 74.56% | 32.08% | 4.94% | Active | 0.082% | 12.9% | 28%
O=C(NCC[Se][Se]CCNC(=O)/C(Cc1ccsc1)=N/O)/C(Cc1ccsc1)=N/O | 0.18% | Active | 18.84% | Dose-Dependent Effect | 31.05% | 51.82% | 50.11% | 6.97% | Active | 0.057% | 7.96% | 19.7%
